How the values were obtained:
human ADRA2B receptor [1] = biological target: T1, human ADRA2B receptor (Homo sapiens, UniProt P18089); experiment: ADRA2B arrestin agonist assay; assay type: cell-based; details: CHO-K1 cells stably expressing human ADRA2B; read-out: Beta-Arrestin - Human Alpha2B EC50
T1 construct: expressed in transfected cells
T1 sequence (P18089 1-450): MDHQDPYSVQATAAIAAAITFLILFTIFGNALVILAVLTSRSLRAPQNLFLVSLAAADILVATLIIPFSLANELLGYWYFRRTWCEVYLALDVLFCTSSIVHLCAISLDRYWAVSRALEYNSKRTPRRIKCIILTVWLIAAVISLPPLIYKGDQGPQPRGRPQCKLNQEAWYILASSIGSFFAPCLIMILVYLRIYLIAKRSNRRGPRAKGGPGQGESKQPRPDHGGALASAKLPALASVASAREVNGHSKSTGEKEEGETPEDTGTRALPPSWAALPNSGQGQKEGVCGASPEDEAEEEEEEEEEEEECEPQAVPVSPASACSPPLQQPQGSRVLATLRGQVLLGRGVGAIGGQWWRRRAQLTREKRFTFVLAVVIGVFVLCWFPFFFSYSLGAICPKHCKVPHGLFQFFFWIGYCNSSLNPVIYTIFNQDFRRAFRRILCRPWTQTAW
Method: ADRA2A and ADRA2B Arrestin Agonist Assay Method
The arrestin assay uses frozen CHO-K1 cell lines stably expressing human ADRA2A and ADRA2B receptors. Cells are frozen following normal cell freezing protocols. Briefly, cells are washed with PBS and then dissociated with 0.25% trypsin. Dissociated cells are quenched in full media and then collected by centrifugation at 290×g for 5 minutes. […] Cells are stored at −80° C. (or in liquid N2 if stored >6 months) until the day of the assay.
On the day before the assay, frozen cells are thawed in a 37° C. water bath, brought up in 20 mL of full media, and collected via centrifugation at 290×g for 5 minutes. […] Cells are incubated overnight in a 37° C., 5% CO2 cell incubator.
On the day of the assay, agonists are diluted in Opti-MEM to 3.5x of the final assay concentration. 4 μL of agonists are added to the cells and incubated for 2 hours at 37° C. in a 5% CO2 cell incubator. 6 μL of arrestin detection reagents are dispensed onto the cells and the plates are incubated for 2 hours at room temperature. […] Plates are read on an Envision luminescence plate reader.

human ADRA2B receptor [2] = biological target: T1, human ADRA2B receptor; experiment: GTPγS agonist assay, ADRA2B receptor; assay type: biochemical; details: read-out: GTPase - Human Alpha2B EC50
Method in brief: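 CHO-K1 membranes stably expressing human ADRA2B (5 μg protein) in 20 mM HEPES, 10 mM MgCl2, 200 mM NaCl with GDP, preincubated 10 min at room temperature with compound. Binding reaction 1 h at 37° C; bound label collected on GF/C filters, washed, read by scintillation counting.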

With Clc1cccc(C(Cc2cccnn2)c2c[nH]cn2)c1 (stereo not shown) [Compound 139, 3-[2-(m-chlorophenyl)-2-(4-imidazolyl)ethyl] pyridazine] the EC50 (human ADRA2B receptor [1]) was over 500 nM.
Work on COc1cccc(C(Cc2cccnn2)c2c[nH]cn2)c1C (stereo not shown) [Compound 140, 3-[2-(4-imidazolyl)-2 (3-methoxy-2-tolyl)ethyl]pyridazine] yielded an EC50 (human ADRA2B receptor [1]) of over 500 nM.
Work on Cc1nccc(C[C@@H](c2c[nH]cn2)c2cccc(C)c2F)n1 [Compound 141, 4-[(R)-2-(2-fluoro-3-tolyl)-2-(4-imidazolyl)ethyl]-2-methylpyrimidine] yielded an EC50 (human ADRA2B receptor [1]) of under 10 nM.
Cc1nccc(C[C@H](c2c[nH]cn2)c2cccc(C)c2F)n1 [Compound 142, 4-[(S)-2-(2-fluoro-3-tolyl)-2-(4-imidazolyl)ethyl]-2-methylpyrimidine] gave an EC50 (human ADRA2B receptor [1]) of over 500 nM.
For Cc1cc(C[C@@H](c2c[nH]cn2)c2cccc(C)c2F)ncn1 [Compound 143, 4-[(R)-2-(2-fluoro-3-tolyl)-2-(4-imidazolyl)ethyl]-6-methylpyrimidine], the EC50 (human ADRA2B receptor [1]) was under 10 nM.
For Cc1cc(C[C@H](c2c[nH]cn2)c2cccc(C)c2F)ncn1 [Compound 144, 4-[(S)-2-(2-fluoro-3-tolyl)-2-(4-imidazolyl)ethyl]-6-methylpyrimidine], the EC50 (human ADRA2B receptor [1]) was over 500 nM.
Cc1cccc(C(Cc2ccc(C#N)nc2)c2c[nH]cn2)c1C (stereo not shown) [Compound 145, 5-[2-(4-imidazolyl)-2 (2,3-xylyl)ethyl]-2-pyridinecarbonitrile] showed an EC50 (human ADRA2B receptor [1]) of 10 to 50 nM.
Cc1cccc([C@@H](Cc2cccc(CO)n2)c2c[nH]cn2)c1C [Compound 146, {6-[(R)-2-(4-imidazolyl)-2-(2,3-xylyl)ethyl]-2-pyridyl}methanol] was tested, and the EC50 (human ADRA2B receptor [1]) was under 10 nM.
Work on Cc1cccc([C@H](Cc2cccc(CO)n2)c2c[nH]cn2)c1C [Compound 147, {6-[(S)-2-(4-imidazolyl)-2-(2,3-xylyl)ethyl]-2-pyridyl}methanol] yielded an EC50 (human ADRA2B receptor [1]) of over 500 nM.
Molecule Cc1cccc([C@@H](Cc2cccc(CF)n2)c2c[nH]cn2)c1C [Compound 150, 4-{(R)-2-[6-(fluoromethyl)-2-pyridyl]-1-(2,3-xylyl)ethyl}imidazole] has an EC50 (human ADRA2B receptor [1]) of under 10 nM.
Cc1cccc([C@H](Cc2cccc(CF)n2)c2c[nH]cn2)c1C [Compound 151, 4-{(S)-2-[6-(fluoromethyl)-2-pyridyl]-1-(2,3-xylyl)ethyl}imidazole] was tested, and the EC50 (human ADRA2B receptor [1]) was 50 to 500 nM.
For Cc1cccc([C@@H](Cc2ccnc(CF)n2)c2c[nH]cn2)c1C [Compound 153, 4-[(R)-2-(4-imidazolyl)-2-(2,3-xylyl)ethyl]-2-(fluoromethyl) pyrimidine], the EC50 (human ADRA2B receptor [1]) was under 10 nM.
For COc1nccc(CC(c2c[nH]cn2)c2cccc(F)c2C)n1 (stereo not shown) [Compound 154, 4-[2-(3-fluoro-2-tolyl)-2-(4-imidazolyl)ethyl]-2-methoxypyrimidine], the EC50 (human ADRA2B receptor [1]) was 10 to 50 nM.
With COc1nccc(CC(c2c[nH]cn2)c2cccc(C)c2F)n1 (stereo not shown) [Compound 155, 4-[2-(2-fluoro-3-tolyl)-2-(4-imidazolyl)ethyl]-2-methoxypyrimidine] the EC50 (human ADRA2B receptor [1]) was under 10 nM.
Work on Cc1cccc(C(Cc2ccnc(CO)n2)c2c[nH]cn2)c1F (stereo not shown) [Compound 156, {4-[2-(2-fluoro-3-tolyl)-2-(4-imidazolyl)ethyl]-2-pyrimidinyl}methanol] yielded an EC50 (human ADRA2B receptor [1]) of under 10 nM.
Cc1nccc(CC(c2c[nH]cn2)c2cccc(C)c2Cl)n1 (stereo not shown) [Compound 157, 4-[2-(2-chloro-3-tolyl)-2-(4-imidazolyl)ethyl]-2-methylpyrimidine] was tested, and the EC50 (human ADRA2B receptor [1]) was under 10 nM.
Cc1nccc(CC(c2c[nH]cn2)c2cccc(Cl)c2C)n1 (stereo not shown) [Compound 158, 4-[2-(3-chloro-2-tolyl)-2-(4-imidazolyl)ethyl]-2-methylpyrimidine] gave an EC50 (human ADRA2B receptor [1]) of under 10 nM.
In the case of Cc1nccc(CC(c2ccc3cccnc3c2)c2c[nH]cn2)n1 (stereo not shown) [Compound 161, 4-[2-(4-imidazolyl)-2-(7-quinolyl)ethyl]-2-methylpyrimidine], the EC50 (human ADRA2B receptor [1]) is reported as over 500 nM.
With COc1nccc(CC(c2ccc(F)c(F)c2)c2c[nH]cn2)n1 (stereo not shown) [Compound 162, 4-[2-(3,4-difluorophenyl)-2-(4-imidazolyl)ethyl]-2-methoxypyrimidine] the EC50 (human ADRA2B receptor [1]) was over 500 nM.
Molecule Cc1cc(CC(c2c[nH]cn2)c2cccc(Cl)c2F)ncn1 (stereo not shown) [Compound 163, 4-[2-(3-chloro-2-fluorophenyl)-2-(4-imidazolyl)ethyl]-6-methylpyrimidine] has an EC50 (human ADRA2B receptor [1]) of 50 to 500 nM.
Cc1cc(CC(c2c[nH]cn2)c2cccc3ccn(C)c23)ncn1 (stereo not shown) [Compound 165, 4-[2-(4-imidazolyl)-2-(1-methyl-7-indolyl)ethyl]-6-methylpyrimidine] showed an EC50 (human ADRA2B receptor [1]) of 50 to 500 nM.
With Cc1nccc(CC(c2c[nH]cn2)c2cccc3c2cnn3C)n1 (stereo not shown) [Compound 167, 4-[1-(4-imidazolyl)-2-(2-methyl-4-pyrimidinyl)ethyl]-1-methyl-1H-indazole] the EC50 (human ADRA2B receptor [1]) was under 10 nM.
Cc1cccc([C@H](Cc2ccnc(C3CC3)n2)c2c[nH]cn2)c1C [Compound 168, 4-[(S)-2-(4-imidazolyl)-2-(2,3-xylyl)ethyl]-2-cyclopropylpyrimidine] showed an EC50 (human ADRA2B receptor [1]) of 10 to 50 nM.
Cc1cccc([C@@H](Cc2ccnc(C3CC3)n2)c2c[nH]cn2)c1C [Compound 169, 4-[(R)-2-(4-imidazolyl)-2-(2,3-xylyl)ethyl]-2-cyclopropylpyrimidine] gave an EC50 (human ADRA2B receptor [1]) of under 10 nM.
Work on Cc1cccc(C(Cc2cnn(C3CC3)c2)c2c[nH]cn2)c1C (stereo not shown) [Compound 271, 1-cyclopropyl-4-[2-(4-imidazolyl)-2-(2,3-xylyl)ethyl]pyrazole] yielded an EC50 (human ADRA2B receptor [2]) of under 10 nM.
Cc1cccc(C(Cc2cnn(C(C)C)c2)c2c[nH]cn2)c1C (stereo not shown) [Compound 277, 4-[2-(4-imidazolyl)-2-(2,3-xylyl)ethyl]-1-isopropylpyrazole] gave an EC50 (human ADRA2B receptor [2]) of 10 to 50 nM.
Cc1cnc(CC(c2c[nH]cn2)c2cccc3c2OCC3)s1 (stereo not shown) [Compound 279, 2-[2-(2,3-dihydro-1-benzofuran-7-yl)-2-(4-imidazolyl)ethyl]-5-methyl-1,3-thiazole] gave an EC50 (human ADRA2B receptor [2]) of 10 to 50 nM.
c1cc2c(c([C@@H](Cc3cnn(C4CC4)c3)c3c[nH]cn3)c1)OCC2 [Compound 289] gave an EC50 (human ADRA2B receptor [2]) of over 500 nM.
c1cc2c(c([C@H](Cc3cnn(C4CC4)c3)c3c[nH]cn3)c1)OCC2 [Compound 290, 4-[(S)-2-(2,3-dihydro-1-benzofuran-7-yl)-2-(4-imidazolyl)ethyl]-1-] gave an EC50 (human ADRA2B receptor [2]) of under 10 nM.
Cc1cccc(C(Cc2ccc(N3CCCC3)nc2)c2c[nH]cn2)c1C (stereo not shown) [Compound 309, 4-{2-[6-(1-pyrrolidinyl)-3-pyridyl]-1-(2,3-xylyl)ethyl}imidazole] gave an EC50 (human ADRA2B receptor [2]) of 10 to 50 nM.
Cc1cccc(C(Cc2cc(C(F)(F)F)nn2C)c2c[nH]cn2)c1C (stereo not shown) [Compound 310, 5-[2-(4-imidazolyl)-2-(2,3-xylyl)ethyl]-1-methyl-3-(trifluoromethyl)pyrazole] gave an EC50 (human ADRA2B receptor [2]) of under 10 nM.
Work on COc1ncc(CC(c2c[nH]cn2)c2cccc3c2OCC3)c(OC)n1 (stereo not shown) [Compound 312, 5-[2-(2,3-dihydro-1-benzofuran-7-yl)-2-(4-imidazolyl)ethyl]-2,4-dimethoxypyrimidine] yielded an EC50 (human ADRA2B receptor [2]) of 10 to 50 nM.
c1cnnc(C[C@@H](c2c[nH]cn2)c2cccc3c2CCO3)c1 [Compound 324, 3-[(R)-2-(2,3-dihydro-1-benzofuran-4-yl)-2-(4-imidazolyl)ethyl]pyridazine] gave an EC50 (human ADRA2B receptor [2]) of over 500 nM.
COc1cc(CC(c2c[nH]cn2)c2cccc3c2OCC3)nc(OC)n1 (stereo not shown) [Compound 335, 4-(2-(2,3-dihydrobenzofuran-7-yl)-2-(1H-imidazol-4-yl)ethyl)-2,6-dimethoxypyrimidine] gave an EC50 (human ADRA2B receptor [2]) of under 10 nM.
Cc1nccc(CC(c2c[nH]cn2)c2cccc3ncoc23)n1 (stereo not shown) [Compound 338, 7-[1-(4-imidazolyl)-2-(2-methyl-4-pyrimidinyl)ethyl]-1,3-benzoxazole] gave an EC50 (human ADRA2B receptor [2]) of over 500 nM.
For COc1nccc(CC(c2c[nH]cn2)c2cccc3c2OCCCO3)n1 (stereo not shown) [Compound 355, 4-[2-(3,4-dihydro-2H-1,5-benzodioxepin-6-yl)-2-(4-imidazolyl)ethyl]-2-methoxypyrimidine], the EC50 (human ADRA2B receptor [2]) was 50 to 500 nM.
COc1cccc(C(Cc2cccnn2)c2c[nH]cn2)c1F (stereo not shown) [Compound 360, 3-[2-(2-fluoro-3-methoxyphenyl)-2-(4-imidazolyl)ethyl]pyridazine] gave an EC50 (human ADRA2B receptor [2]) of over 500 nM.
FC(F)(F)c1ccc(Cl)c(C(Cc2cccnn2)c2c[nH]cn2)c1 (stereo not shown) [Compound 361, 3-{2-[2-chloro-5-(trifluoromethyl)phenyl]-2-(4-imidazolyl)ethyl}pyridazine] gave an EC50 (human ADRA2B receptor [2]) of over 500 nM.
c1cnnc(C[C@H](c2c[nH]cn2)c2cccc3c2OCC3)c1 [Compound 363, 3-[(S)-2-(2,3-dihydro-1-benzofuran-7-yl)-2-(4-imidazolyl)ethyl]pyridazine] gave an EC50 (human ADRA2B receptor [2]) of over 500 nM.
Cc1cccc([C@@H](Cc2cnco2)c2c[nH]cn2)c1C [Compound 365, 5-[(R)-2-(4-imidazolyl)-2-(2,3-xylyl)ethyl]-1,3-oxazole] gave an EC50 (human ADRA2B receptor [2]) of over 500 nM.
